According to patent publication US20260027073A1, “USE OF SMALL-MOLECULE COMPOUND HAVING NAPHTHYLAMINE STRUCTURE” (HANGZHOU PHECDAMED CO., LTD., priority 2023, published 2026):

What was measured:
[1] = test system: Mesenchymal stem cells (MSC) differentiated from normal human pluripotent stem cells (iPSC); assay: Senescence of normal human derived mesenchymal stem cells; format: cell-based; details: 10 μM
Procedure: Mesenchymal stem cells (MSC) differentiated from normal human pluripotent stem cells (iPSC) were taken for culture, and the experiment was divided into three groups: young cells cultured for 6 generations, labeled as Con-Y; senescent cells cultured for 16 generations, labeled as Con-O; and the administration group, to which 10 μM TJ01-013 was added during the process of culture, similarly cultured up to the 16th generation, and labeled as Con-O+TJ01-013, and after the end of the treatment, all cells were placed under the microscope to observe the morphology of the cells, and the percentage of SA-β-gal+ cells was count. The levels of the DNA damage marker γ-H2AX and the heterochromatin modification H3K9me3 after TJ01-013 treatment were detected by immunofluorescence technique (procedure described previously).

MRL/lpr mice = assay: Lupus nephritis in MRL/lpr mice; format: in vivo
Procedure: The 10-week-old female MRL/lpr mice were fed in an SPF environment with a light-dark cycle of 12 h and the temperature maintained at 24-26° C. The mice were randomly divided into three groups according to their body weights, namely, the model group (Control, n=8, 0.5% CMC-Na by oral gavage), TJ01-013 10 mg/kg treatment group (10 mg/kg, n=8, 10 mg/kg TJ01-013 by oral gavage), TJ01-013 30 mg/kg treatment group (30 mg/kg, n=8, 30 mg/kg TJ01-013 by oral gavage), the animals were adaptively fed for one week, and were administered every day starting from 11th week, and the animals were monitored for the concentration of randomized urinary proteins and urinary creatinine of the mice in each group every 2 weeks starting from week 11, the mouse urine protein to creatinine concentration ratio (uPCR) was calculated. The animals were administered for a total of 10 weeks, and blood was collected from the orbits at the end of administration and serum was collected. Serum creatinine, urea nitrogen, serum ANA and anti-dsDNA concentrations were detected.
Urine protein and urinary creatinine levels were detected by utilizing Caumas Brilliant Blue staining.
Serum creatinine and urea nitrogen were detected by biochemical analyzer.
Serum ANA and anti-dsDNA levels were detected by ELISA.
Kidney tissue was placed in a homogenizer and minced into pieces thoroughly with clean scissors; 400 μl of lysate was added to the homogenizer, homogenized and then placed on ice, and the grinding was repeated several times on ice until the kidney tissue was ground as thoroughly as possible; after 30 min of lysis, the lysate was transferred to a 1.5 ml centrifuge tube with a pipette, and then centrifuged for 10 min at 12,000 rpm under the condition of 4° C., and the supernatant was taken and stored at −20° C. Inflammatory factors TNFα and IL-6 in kidney tissue proteins were detected using ELISA.

[2] = test system: DSS-induced enteritis mice; assay: DSS-induced inflammatory bowel disease; format: in vivo, C57BL/6J mice
Procedure: Eight-week-old C57BL/6J male mice were randomly divided into […], of which, G1 blank control group (8 mice), G2 positive control group (intraperitoneal injection of infliximab 10 mg/kg, 8 mice), G3 group (intraperitoneal injection of small-molecule drug TJ01-013, 5 mg/kg, 12 mice), G4 group (intraperitoneal injection of small-molecule drug TJ01-013, 10 mg/kg, 12 mice) and G5 group (intraperitoneal injection of small-molecule drug TJ01-013, 10 mg/kg, 12 mice). The configuration method of intraperitoneal injection drug was 5% DMSO+30% PEG400+65% ddH2O, the small-molecule compound was first dissolved in 5% DMSO, and then 30% PEG400 and 65% H2O were added sequentially, after 2 weeks of acclimatization, 2% DSS solution was given as drinking water for 6 days, and then was replaced with normal drinking water. During the experiment, the mice were injected intraperitoneally with the corresponding concentration of small-molecule compound every day; and the mice were recorded daily for weight change, fecal shape and blood in stool. During the experiment, the fecal shape and blood in stool were scored, and the disease activity index was calculated on day 3th, day 6th, and day 8th.
At the end of the experiment, after the mice were put to death with CO2, all the intestinal segments from the cecum to the anus were cut, photographed and measured for length.
The middle about 1 cm intestinal segment was taken into the embedding box and immersed in 4% paraformaldehyde, fixed and immersed for 72 h to prepare pathological specimens for HE staining, and the histopathological results were scored; tissue embedding, sectioning and HE staining were performed as follows:
The remaining intestinal segments were washed with pre-cooled saline using a 50 mL syringe, and after washing out the remaining liquid in the intestinal lumen, the tissues were cut into pieces with small scissors and mixed evenly, wrapped in tin foil and then rapidly frozen in liquid nitrogen, and all the operations were controlled to be completed within 10 minutes after the death of the mice. The tissues were lysed by Trizol, and RNA was extracted according to the instructions of Trizol; the obtained RNA was subjected to reverse transcription reaction with the Reverse Transcription Kit from ABI company; SYBR Green method was used to detect the inflammatory factors such as Cxcl1, G-CSF, IL6, IL-1β, S100A8, and TNF-α in the reversed transcription products, and the housekeeping gene Actin was used as an internal reference, and calculated and analyzed by 2-ΔΔCt method.

[3] = vs model control group, FIG. 23
[4] = vs model control group, FIG. 24

## O=C(O)C[S+]([O-])c1cc(NS(=O)(=O)c2ccc(Br)cc2)c2ccccc2c1O (stereo not shown) [I-1]
[1]; 16th generation, vs Con-O, FIG. 51
  percentage of SA-β-gal-positive cells: significantly decreased
[1]; FIG. 52
  level of DNA damage marker γ-H2AX: significantly reduced
[1]; FIG. 53
  expression level of heterochromatin-modified H3K9me3: restored its expression level to some extent
MRL/lpr mice; 10 weeks of administration, 10 and 30 mg/kg groups, FIG. 74
  urine protein to creatinine concentration ratio (uPCR): significantly lower
MRL/lpr mice; vs model group, FIG. 75
  serum creatinine level: significantly decreased
  serum urea nitrogen level: significantly decreased
MRL/lpr mice; vs model group, FIG. 76
  serum ANA level: significantly decreased
MRL/lpr mice; vs model group, FIG. 77
  serum dsDNA level: significantly decreased
MRL/lpr mice; vs model group, FIG. 78
  IL-6 level in kidney tissues: significantly reduced
  TNFα level in kidney tissues: significantly reduced
[2]; FIG. 23
  Histopathological scores: significantly reduced the pathological changes
[2]; intraperitoneal injection during DSS induction, FIG. 20
  weight loss of the mice: slowing down of the weight loss
[2]; intraperitoneal injection during DSS induction, FIG. 21
  disease activity index: reduction of the disease activity index
[2]; vs model control group, FIG. 22
  colorectal length: significantly greater
[2]; [3]
  colorectal tissue morphology (HE staining): more intact
  inflammatory infiltration of colorectal tissue: reduced
[2]; [4]
  Cxcl1 expression level in colorectal tissue (q-PCR): significantly reduced
  G-CSF expression level in colorectal tissue (q-PCR): significantly reduced
  IL6 expression level in colorectal tissue (q-PCR): significantly reduced
  IL-1β expression level in colorectal tissue (q-PCR): significantly reduced
  S100A8 expression level in colorectal tissue (q-PCR): significantly reduced
  TNF-α expression level in colorectal tissue (q-PCR): significantly reduced
